Values joined by “and” are separate entries in the source; they are usually repeats but may differ in a detail not shown here. Identical values can stand only once.
Tests used:
[1] = tested on: HeLa; assay: Crystal violet cytotoxicity assay, HeLa; assay type: cell-based; conditions: Homo sapiens, 48 h incubation, triplicate
Method: (§1) FIG. 16 illustrates dose vs response curves of carbolines 18ac, 18bc, 18da and 18fa in HeLa, MCF-7, HEK293, A431 and A549 cell lines for 48 h incubation. IC50 values were determined by standard crystal violet assay in triplicate, according to the embodiments as disclosed herein. In vitro studies: The cytotoxicity of novel carboline derivatives 18ac, 18bc, 18da and 18fa were tested through standard crystal violet assay on human malignant cell lines such as HeLa, MCF-7, HEK293, A431 and A549. Cells were plated in a 96 well plate (1800 cells per well) and incubated for 48 h at 37° C. under 5% CO2. At 50% confluency, cells were incubated with a series of concentrations (0.1 μM, 0.25 μM, 0.5 μM, 1 μM, 2.5 μM, 5 μM, 10 μM, 25 μM, 50 μM and 100 μM) of the carbolines 18ac, 18bc, 18da and 18fa, respectively, for 48 h.
(§2) Procedure for cytotoxicity assay of carbolines in cancer cell lines: For this purpose, carbolines 18ac, 18bc, 18da and 18fa were subjected to a standard cell viability study (Crystal Violet assay) for examining anticancer activity against various human cancer cell lines such as HeLa, MCF-7, HEK293, A431 and A549. Crystal Violet is a triarylmethane dye which stains adhered cells by binding to the […]. The amount of Crystal Violet stain in the assay is directly proportional to the live cell biomass adhered on the plate after repeated washing. The above human cancer cell lines were plated in a 96-well tissue culture plate (1800 cells/well,) and incubated for 48 h in RPMI 1640 medium (volume≥100 μL/well), supplemented with 10% heat inactivated fetal bovine serum (HIFBS) and 1% Penicillin-Streptomycin antibiotic at 37° C., 5% CO2. Once the monolayer achieved 50% confluency/well, spent medium was aspirated and replaced with fresh medium≥100 μL/well, supplemented with increasing concentrations of carbolines 18ac, 18bc, 18da and 18fa (0.1 μM, 0.25 μM, 0.5 μM, 1 μM, 2.5 μM, 5 μM, 10 μM, 25 μM, 50 μM and 100 μM), respectively, and incubated for 48 h, at 37° C., 5% CO2. For positive control, 40% DMSO in culture medium was added to three wells and incubated under identical conditions. […] Finally, optical density of each well was measured at 570 nm (OD570) using Synergy H1 multimode plate reader (BioTek Instruments, Inc., Winooski, Vt., USA). The average background OD570 of empty wells was measured and subtracted from OD570/well on the plate. The percentage of treated, viable cells (attached) was determined and a dose vs response curve was plotted as semi-log[conc] vs percentage of normalized cell viability using GraphPad Prism v. […] The half maximal inhibitory concentration (IC50) was calculated and shown in Table 3 for carbolines 18ac, 18bc, 18da and 18fa against various human cancer cell lines (FIG. 16).

[2] = tested on: A431; assay: Crystal violet cytotoxicity assay, A431; assay type: cell-based; conditions: Homo sapiens, A-431, 48 h incubation, triplicate
Method: as §1, §2

[3] = tested on: HEK293; assay: Crystal violet cytotoxicity assay, HEK293; assay type: cell-based; conditions: Homo sapiens, 48 h incubation, triplicate
Method: as §1, §2

[4] = tested on: A549; assay: Crystal violet cytotoxicity assay, A549; assay type: cell-based; conditions: Homo sapiens, 48 h incubation, triplicate
Method: as §1, §2

[5] = tested on: MCF-7; assay: Crystal violet cytotoxicity assay, MCF-7; assay type: cell-based; conditions: Homo sapiens, MCF7, 48 h incubation, triplicate
Method: as §1, §2

[6] = Stability in polar solvent (HRMS footnote); assay type: physicochemical; conditions: HRMS recording
[7] = tested on: Mycobacterium smegmatis; assay: In vitro Mycobacterium strains killing assay, M. smegmatis; assay type: cell-based
[8] = tested on: HeLa cells; assay: Live-cell confocal imaging of cell uptake; assay type: cell-based, human; conditions: 3 h incubation, confocal microscopy
Method: FIG. b 17 illustrates confocal microscopic studies (λex=405 nm; collection range=420-470 nm) for uptake of 18ac in HeLa cells, according to the embodiments as disclosed herein. • a) Confocal fluorescent image of HeLa cells after 3 h incubation with 10 μM concentration of 18ac (20× magnification, 2× zoom); • b) DIC image of HeLa cells • c) Overlay of (a) and (b) • d) Confocal image of HeLa cells after 3 h incubation with 100 nM concentration of 18ac (20× magnification, 2× zoom) • e) DIC image of HeLa cells • f) Overlay of (d) and (e).
To further evaluate cell uptake of the novel carbolines, live-cell imaging experiment was performed. HeLa cells were plated in a 4-well confocal dish (cell count=10^4 cells per well) and incubated for 48 h at 37° C. under 5% CO2. After 3 h of incubation with 18ac (10 nM, 100 nM, 1 μM, 10 μM, and 100 μM), cellular uptake and distribution were monitored by using confocal microscopy (λex=405 nm; collection range=420-470 nm).

## COC(=O)c1cc2c(c(-c3cc4cc(OC)ccc4n3C)n1)c1cc(OC)ccc1n2C
other
  melting point: 160 to 162 °C

## COC(=O)c1cc2c(ccn2S(=O)(=O)c2ccccc2)c(-c2cccn2S(=O)(=O)c2ccccc2)n1
other
  melting point: 104 to 106 °C

## COC(=O)c1cc2c(c(-c3cc4ccccc4n3Cc3ccc(OC)cc3)n1)c1ccccc1n2Cc1ccc(OC)cc1 [18da, Methyl 5-(4-methoxybenzyl)-1-(1-(4-methoxybenzyl)-1H-indol-2-yl)-5H-pyrido[4,3-b]indole-3-carboxylate]
[1]
  IC50: 1.3 µM
[2]
  IC50: 4.47 µM
other
  melting point: 106 to 108 °C
[3]
  IC50: 6.73 µM
[4]
  IC50: 5.17 µM
[5]
  IC50: 2.99 µM

## COC(=O)C1=Cc2c(c3ccccc3n2S(=O)(=O)c2ccc(C)cc2)C(c2cc3ccccc3n2S(=O)(=O)c2ccc(C)cc2)N1 (stereo not shown) [18fa, Methyl 5-tosyl-1-(1-tosyl-1H-indol-2-yl)-2,5-dihydro-1H-pyrido[4,3-b]indole-3-carboxylate]
[1]
  IC50: 1.07 µM
[2]
  IC50: 3.58 µM
other
  melting point: 205 to 207 °C
[3]
  IC50: 4.98 µM
[4]
  IC50: 4.98 µM
[5]
  IC50: 3.71 µM

## COC(=O)c1cc2c(ccn2Cc2ccccc2)c(-c2cccn2Cc2ccccc2)n1
other
  melting point: 134 to 136 °C

## NC(=O)c1cc2c(ccn2Cc2ccccc2)c(-c2cccn2Cc2ccccc2)n1 [compound 11, 1-Benzyl-4-(1-benzyl-1H-pyrrol-2-yl)-1H-pyrrolo[3,2-c]pyridine-6-carboxamide]
[6]
  stability in polar solvent: unstable in polar solvent

## COC(=O)c1cc2c(c(-c3cc4ccccc4n3C)n1)c1ccccc1n2C
other
  melting point: 210 to 212 °C

## CCOC(=O)c1cc2oc3ccccc3c2c(-c2cc3ccccc3o2)n1
other
  melting point: 141 to 143 °C

## COC(=O)c1cc2c(ccn2S(=O)(=O)c2ccc(C)cc2)c(-c2cccn2S(=O)(=O)c2ccc(C)cc2)n1
other
  melting point: 120 to 122 °C

## COC(=O)c1cc2c(c(-c3cc4ccccc4n3Cc3ccccc3)n1)c1ccccc1n2Cc1ccccc1
other
  melting point: 168 to 170 °C

## COC(=O)c1cc2oc3ccccc3c2c(-c2cc3ccccc3o2)n1
other
  melting point: 163 to 165 °C

## Cc1ccc(-c2nc(COCc3cn(CCN4C(=O)C(=O)c5ccccc54)nn3)cc3oc(C)cc23)o1 [compound 26, 1-(2-(4-(((2-Methyl-4-(5-methylfuran-2-yl)furo[3,2-c]pyridin-6-yl)methoxy)methyl)-1H-1,2,3-triazol-1-yl)ethyl)indoline-2,3-dione]
[7]
  concentration range in which active (antituberculosis activity): 70 to 100 µM and 50 to 100 µM

## COC(=O)c1cc2occc2c(-c2ccco2)n1
other
  melting point: 95 to 97 °C

## Cn1c(-c2nc(C(=O)OC(C)(C)C)cc3c2c2ccccc2n3C)cc2ccccc21 [18ac, Tert-butyl 5-methyl-1-(1-methyl-1H-indol-2-yl)-5H-pyrido[4,3-b]indole-3-carboxylate]
[1]
  IC50: 4.89 µM
[2]
  IC50: 4.89 µM
other
  melting point: 200 to 202 °C
[8]; 100 nM concentration
  cellular uptake: nominal uptake
[8]; 10 μM concentration
  cellular uptake: Decent cytosolic uptake
[3]
  IC50: 2.29 µM
[4]
  IC50: 4.62 µM
[5]
  IC50: 5.59 µM

## CC(C)(C)OC(=O)c1cc2occc2c(-c2ccco2)n1
other
  melting point: 78 to 80 °C

## CC(C)(C)OC(=O)c1cc2oc3ccccc3c2c(-c2cc3ccccc3o2)n1
other
  melting point: 100 to 102 °C

## CCOC(=O)c1cc2c(c(-c3cc4ccccc4n3C)n1)c1ccccc1n2C
other
  melting point: 175 to 177 °C

## CC(C)(C)OC(=O)c1cc2c(c(-c3cc4ccccc4n3Cc3ccccc3)n1)c1ccccc1n2Cc1ccccc1 [18bc, Tert-butyl 5-benzyl-1-(1-benzyl-1H-indol-2-yl)-5H-pyrido[4,3-b]indole-3-carboxylate]
[1]
  IC50: 8.15 µM
[2]
  IC50: 9.18 µM
other
  melting point: 148 to 150 °C
[3]
  IC50: 7.14 µM
[4]
  IC50: 5.47 µM
[5]
  IC50: 7.07 µM
